For one assay, the target named is T1, mutant MGL (Homo sapiens, UniProt Q99685, L169S/L176S).
T1 sequence (Q99685 1-303 L169S/L176S): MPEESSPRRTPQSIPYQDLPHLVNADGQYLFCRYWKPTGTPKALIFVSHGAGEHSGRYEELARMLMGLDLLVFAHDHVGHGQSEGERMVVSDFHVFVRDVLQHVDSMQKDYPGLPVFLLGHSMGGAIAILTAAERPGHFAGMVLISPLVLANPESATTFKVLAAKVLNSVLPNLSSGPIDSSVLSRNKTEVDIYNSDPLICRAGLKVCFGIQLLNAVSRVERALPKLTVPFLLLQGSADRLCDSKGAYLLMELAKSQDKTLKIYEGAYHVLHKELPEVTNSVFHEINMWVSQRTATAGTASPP
The experiment in a line: MGL ThermoFluor assay - mutant. The class given is binding. In general terms: Differential scanning fluorimetry follows unfolding on heating by fluorescence.

Assay [1] concerns the target T2, purified wild type MGL (wt-MGLL 6H-11-313) (Homo sapiens, UniProt Q99685).
T2 sequence (Q99685 1-303): T1 sequence (Q99685 1-303 L169S/L176S) with S169L, S176L

For the next assay, the target named is T3, MGL (Rattus norvegicus, UniProt Q8R431).
T3 construct: one g rat brain was homogenized using a Polytron homogenizer; from tissue; host or cells: rat brain homogenate
T3 sequence (Q8R431 1-303): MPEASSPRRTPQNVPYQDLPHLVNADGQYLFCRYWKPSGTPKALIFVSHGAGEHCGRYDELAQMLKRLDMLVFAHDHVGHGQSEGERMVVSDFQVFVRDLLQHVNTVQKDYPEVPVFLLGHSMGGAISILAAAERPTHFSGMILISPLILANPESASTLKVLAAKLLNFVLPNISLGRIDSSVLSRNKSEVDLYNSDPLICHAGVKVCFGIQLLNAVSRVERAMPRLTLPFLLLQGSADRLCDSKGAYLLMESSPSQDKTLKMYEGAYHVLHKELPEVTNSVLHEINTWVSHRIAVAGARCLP
The experiment in a line: 2-AG accumulation assay in rat brain homogenate. As to conditions: rat brain homogenate; compound 1 μM; 2-AG accumulation as percent of vehicle; read-out: Rat Brain 2AG % VehCntrl (%) @ 1 μM. The class given is biochemical.

The mark [2] stands for this setting: ThermoFluor, compound concentration measured by qNMR, read-out: MGL mutant ThermoFluor qKd (using qNMR conc.).
[3] abbreviates: ThermoFluor concentration-response, read-out: MGL mutant ThermoFluor Kd.
[4] abbreviates: compound concentration measured by qNMR, read-out: MGL mutant ThermoFluor qKd (using qNMR conc.).
The mark [5] stands for this setting: ThermoFluor, compound concentration measured by qNMR, read-out: MGL mutant ThermoFluor qKd (μM) (using qNMR conc.).

Positions count from the first letter of the chain named. Like-named read-outs stand apart in the source and are kept apart here. Some results are limits rather than exact numbers.

For the compound `Cc1ccc(-n2ccc3cc(C(=O)N4CC(N5CCN(C(=O)c6nccs6)CC5)C4)ccc32)cn1` [Cpd 1105, 1-(6-Methylpyridin-3-yl)-5-({3-[4-(1,3-thiazol-2-ylcarbonyl)piperazin-1-yl]azetidin-1-yl}carbonyl)-1H-indole], the Kd at mutant MGL (setting [2]) came to 0.023 µM. Further, the IC50 in assay [1] amounted to 13 nM. Moreover, the 2-AG accumulation, % of vehicle control at 1 µM on MGL amounted to 734%.

Regarding `Cc1cn(-c2ccc(F)cc2)c2ccc(C(=O)N3CCN(C4CN(C(=O)c5nccs5)C4)CC3)cc12` [Cpd 1089, 1-(4-Fluorophenyl)-3-methyl-5-({4-[1-(1,3-thiazol-2-ylcarbonyl)azetidin-3-yl]piperazin-1-yl}carbonyl)-1H-indole], the Kd on mutant MGL (setting [3]) was 0.009 µM; on mutant MGL (setting [2]) it was 0.006 µM. This compound also came in with an IC50 in assay [1] of 10 nM. In addition, the 2-AG accumulation, % of vehicle control at 1 µM on MGL is 545%.

As to `COc1c(C(=O)N2CC(N3CCN(C(=O)c4cscn4)CC3)C2)sc2cc(C(F)(F)F)ccc12` [Cpd 700], the Kd at mutant MGL (setting [4]) came out at 0.006 µM. Moreover, the IC50 in assay [1] was 72 nM. Also, the 2-AG accumulation, % of vehicle control at 1 µM on MGL came to 547%.

Consider `Cn1cc(Cc2ccc(F)cc2)c2ccc(C(=O)N3CC(N4CCN(C(=O)c5cscn5)CC4)C3)cc21` [Cpd 1027], for which the Kd at mutant MGL (setting [4]) was 0.012 µM. This compound yielded an IC50 in assay [1] of 14 nM. For the same compound, the 2-AG accumulation, % of vehicle control at 1 µM at MGL was 785%.

As to `O=C(c1ccc2c(c1)C1C=CCC1C(c1cccc(Cl)c1)N2)N1CC(N2CCN(C(=O)c3nccs3)CC2)C1` (stereo not shown) [Cpd 667], the Kd at mutant MGL (setting [3]) was found to be 0.013 µM. Half-maximal inhibition in assay [1] (IC50) was put at 14 nM. Moreover, the 2-AG accumulation, % of vehicle control at 1 µM on MGL is 856%.

In the case of `Cc1c(C(=O)N2CC(N3CCN(C(=O)c4ccccc4)CC3)C2)sc2cc(C(F)(F)F)ccc12` [Cpd 505], the Kd at mutant MGL (setting [3]) is 0.01 µM. Besides, the IC50 in assay [1] was 39 nM. Besides, at MGL, the 2-AG accumulation, % of vehicle control at 1 µM was determined as 236%.

For `O=C(c1cc(-c2ccc(F)cc2)cs1)N1CC(N2CCN(C(=O)c3nccs3)CC2)C1` [Cpd 1157], the Kd on mutant MGL (setting [5]) was determined as 0.179 µM. The same compound gave a 50% inhibitory concentration (IC50) in assay [1] of 41 nM. Besides, on MGL, the 2-AG accumulation, % of vehicle control at 1 µM was determined as 252%.

For `CCCc1ccc(C(=O)N2CC(N3CCN(C(=O)c4nccs4)CC3)C2)cc1` [Cpd 655], the Kd on mutant MGL (setting [3]) was determined as 0.029 µM. In addition, the concentration for half-maximal inhibition (IC50) in assay [1] was 8 nM. Further, at MGL, the 2-AG accumulation, % of vehicle control at 1 µM is 359%.

Turning to `O=C(c1ccc2nc(-c3ccc(F)c(F)c3)oc2c1)N1CC(N2CCN(C(=O)c3nccs3)CC2)C1` [Cpd 1077], the Kd on mutant MGL (setting [5]) worked out at 0.02 µM. In assay [1], this compound had a half-inhibitory concentration (IC50) of 8 nM. Further, the 2-AG accumulation, % of vehicle control at 1 µM on MGL turned out to be 667%.

For `O=C(c1ccccc1)N1CCN(C2CN(C(=O)c3ccc(Cc4ccc(C(F)(F)F)cc4)cc3)C2)CC1` [Cpd 771], the Kd at mutant MGL (setting [3]) was found to be 0.05 µM. It took 7 nM to reach half-maximal inhibition in assay [1] (IC50). Further, the 2-AG accumulation, % of vehicle control at 1 µM at MGL is 465%.

As for `Cn1nc(-c2ccccc2)c2cc(C(=O)N3CC(N4CCN(C(=O)c5nccs5)CC4)C3)ccc21` [Cpd 1137, 1-Methyl-3-phenyl-5-({3-[4-(1,3-thiazol-2-ylcarbonyl)piperazin-1-yl]azetidin-1-yl}carbonyl)-1H-indazole], the Kd on mutant MGL (setting [3]) was determined as 0.01 µM. In addition, the concentration for half-maximal inhibition (IC50) in assay [1] stood at 26 nM. Also, on MGL, the 2-AG accumulation, % of vehicle control at 1 µM came out at 582%.

In the case of `O=C(c1ccc2c(c1)CCN2c1ccc(F)cc1)N1CC(N2CCN(C(=O)c3nccs3)CC2)C1` [Cpd 885, 1-(4-Fluorophenyl)-5-({3-[4-(1,3-thiazol-2-ylcarbonyl)piperazin-1-yl]azetidin-1-yl}carbonyl)-2,3-dihydro-1H-indole], the Kd at mutant MGL (setting [4]) is 0.001 µM. Also, in assay [1], the IC50 is below 5 nM. Also, on MGL, the 2-AG accumulation, % of vehicle control at 1 µM turned out to be 722%.

With `O=C(c1nccs1)N1CCN(C2CN(C(=O)c3sc4cc(-c5ccc(C(F)(F)F)cc5)ccc4c3F)C2)CC1` [Cpd 1063], the Kd at mutant MGL (setting [3]) is 0.003 µM. In assay [1], this compound yielded an IC50 of 7 nM. The 2-AG accumulation, % of vehicle control at 1 µM at MGL stood at 846%.

As for `O=C(c1cc(-c2ccc(Cl)cc2)n(-c2ccc(Cl)c(Cl)c2)n1)N1CC(N2CCN(C(=O)c3nccs3)CC2)C1` [Cpd 1083], on mutant MGL (setting [2]), the Kd was 0.065 µM. For the same compound, in assay [1], the half-maximal inhibitory concentration (IC50) is 9 nM. Besides, the 2-AG accumulation, % of vehicle control at 1 µM on MGL came out at 299%.

Take `COc1ccc(-n2ccc3cc(C(=O)N4CC(N5CCN(C(=O)c6ccc[nH]6)CC5)C4)ccc32)cn1` [Cpd 1176, 1-(6-Methoxypyridin-3-yl)-5-({3-[4-(1H-pyrrol-2-ylcarbonyl)piperazin-1-yl]azetidin-1-yl}carbonyl)-1H-indole]: on mutant MGL (setting [2]), the Kd is 0.161 µM. Further, the 50% inhibitory concentration (IC50) in assay [1] stood at 70 nM. The 2-AG accumulation, % of vehicle control at 1 µM on MGL amounted to 378%.

Regarding `O=C(c1ccc2c(c1)c(Cl)cn2-c1ccc(F)cc1)N1CC(N2CCN(C(=O)c3nccs3)CC2)C1` [Cpd 1365, 3-Chloro-1-(4-fluorophenyl)-5-({3-[4-(1,3-thiazol-2-ylcarbonyl)piperazin-1-yl]azetidin-1-yl}carbonyl)-1H-indole], the Kd on mutant MGL (setting [3]) amounted to 0.002 µM. Also, the IC50 in assay [1] is below 5 nM. For the same compound, the 2-AG accumulation, % of vehicle control at 1 µM on MGL stood at 909%.

As for `O=C(c1cc[nH]c1)N1CC(N2CCN(C(=O)c3cc4cc(C(F)(F)F)ccc4s3)CC2)C1` [Cpd 741, 1-[1-(1H-Pyrrol-3-ylcarbonyl)azetidin-3-yl]-4-{[5-(trifluoromethyl)-1-benzothiophen-2-yl]carbonyl}piperazine], at mutant MGL (setting [3]), the Kd was 0.2 µM. Besides, in assay [1], it took 298 nM to reach half-maximal inhibition (IC50). Besides, the 2-AG accumulation, % of vehicle control at 1 µM at MGL came out at 182%.

Consider `O=C(c1nccs1)N1CCN(C2CN(C(=O)c3sc4cc(F)c(C(F)(F)F)cc4c3Cl)C2)CC1` [Cpd 901, 1-(1-{[3-Chloro-6-fluoro-5-(trifluoromethyl)-1-benzothiophen-2-yl]carbonyl}azetidin-3-yl)-4-(1,3-thiazol-2-ylcarbonyl)piperazine], for which the Kd at mutant MGL (setting [5]) worked out at 0.001 µM. In assay [1], this compound returned an IC50 below 5 nM. In addition, the 2-AG accumulation, % of vehicle control at 1 µM at MGL stood at 816%.

With `Cc1cc(-c2ccccc2)ccc1C(=O)N1CC(N2CCN(C(=O)c3nccs3)CC2)C1` [Cpd 1074, 1-{1-[(3-Methylbiphenyl-4-yl)carbonyl]azetidin-3-yl}-4-(1,3-thiazol-2-ylcarbonyl)piperazine], at mutant MGL (setting [3]), the Kd was 0.011 µM. Also, the midpoint of inhibition in assay [1], the IC50, lay at 8 nM. The 2-AG accumulation, % of vehicle control at 1 µM at MGL amounted to 303%.

Take `Cc1c(C(=O)N2CCN(C3CN(C(=O)c4cscn4)C3)CC2)sc2cc(C(F)(F)F)ccc12` [Cpd 705]: the Kd at mutant MGL (setting [3]) worked out at 0.012 µM. Besides, in assay [1], the IC50 worked out at 99 nM. In addition, the 2-AG accumulation, % of vehicle control at 1 µM at MGL is 487%.

For `O=C(Nc1ccc(C(=O)N2CC(N3CCN(C(=O)c4nccs4)CC3)C2)cc1)c1cc(F)ccc1Cl` [Cpd 702], the Kd on mutant MGL (setting [2]) turned out to be 0.207 µM. In assay [1], this compound yielded an IC50 of 303 nM. Moreover, the 2-AG accumulation, % of vehicle control at 1 µM on MGL amounted to 848%.

With `O=C(c1ccc(-c2nc(-c3ccccc3)c(-c3ccccc3)[nH]2)cc1)N1CC(N2CCN(C(=O)c3nccs3)CC2)C1` [Cpd 1179], the Kd on mutant MGL (setting [3]) came out at 0.005 µM. The compound further came in with an IC50 in assay [1] of 73 nM. Also, at MGL, the 2-AG accumulation, % of vehicle control at 1 µM was 996%.

For orientation: IC50 means the midpoint of a concentration-inhibition curve. The low end stands for higher potency, the high end for lower potency.

The values are drawn from US8362000B2, “Azetidinyl diamides as monoacylglycerol lipase inhibitors” (Janssen Pharmaceutica NV, priority 2009, dated 2013).
